Reference: ChEMBL document CHEMBL5634118, “Inhibition of Son of Sevenless Homologue 1 (SOS1): Promising therapeutic treatment for KRAS-mutant cancers” (Eur J Med Chem, 2023)

What was measured:
K562 = experiment: cells; settings: Homo sapiens, K562, 72 h
[1] = molecular target: T1, Son of sevenless homolog 1 (Homo sapiens, UniProt Q07889); experiment: Inhibition of SOS1 in human Calu-1 cells assessed as reduction in pERK level incubated for 24 hrs by HTRF analysis; format: cell-based
T1 sequence (Q07889 whole entry): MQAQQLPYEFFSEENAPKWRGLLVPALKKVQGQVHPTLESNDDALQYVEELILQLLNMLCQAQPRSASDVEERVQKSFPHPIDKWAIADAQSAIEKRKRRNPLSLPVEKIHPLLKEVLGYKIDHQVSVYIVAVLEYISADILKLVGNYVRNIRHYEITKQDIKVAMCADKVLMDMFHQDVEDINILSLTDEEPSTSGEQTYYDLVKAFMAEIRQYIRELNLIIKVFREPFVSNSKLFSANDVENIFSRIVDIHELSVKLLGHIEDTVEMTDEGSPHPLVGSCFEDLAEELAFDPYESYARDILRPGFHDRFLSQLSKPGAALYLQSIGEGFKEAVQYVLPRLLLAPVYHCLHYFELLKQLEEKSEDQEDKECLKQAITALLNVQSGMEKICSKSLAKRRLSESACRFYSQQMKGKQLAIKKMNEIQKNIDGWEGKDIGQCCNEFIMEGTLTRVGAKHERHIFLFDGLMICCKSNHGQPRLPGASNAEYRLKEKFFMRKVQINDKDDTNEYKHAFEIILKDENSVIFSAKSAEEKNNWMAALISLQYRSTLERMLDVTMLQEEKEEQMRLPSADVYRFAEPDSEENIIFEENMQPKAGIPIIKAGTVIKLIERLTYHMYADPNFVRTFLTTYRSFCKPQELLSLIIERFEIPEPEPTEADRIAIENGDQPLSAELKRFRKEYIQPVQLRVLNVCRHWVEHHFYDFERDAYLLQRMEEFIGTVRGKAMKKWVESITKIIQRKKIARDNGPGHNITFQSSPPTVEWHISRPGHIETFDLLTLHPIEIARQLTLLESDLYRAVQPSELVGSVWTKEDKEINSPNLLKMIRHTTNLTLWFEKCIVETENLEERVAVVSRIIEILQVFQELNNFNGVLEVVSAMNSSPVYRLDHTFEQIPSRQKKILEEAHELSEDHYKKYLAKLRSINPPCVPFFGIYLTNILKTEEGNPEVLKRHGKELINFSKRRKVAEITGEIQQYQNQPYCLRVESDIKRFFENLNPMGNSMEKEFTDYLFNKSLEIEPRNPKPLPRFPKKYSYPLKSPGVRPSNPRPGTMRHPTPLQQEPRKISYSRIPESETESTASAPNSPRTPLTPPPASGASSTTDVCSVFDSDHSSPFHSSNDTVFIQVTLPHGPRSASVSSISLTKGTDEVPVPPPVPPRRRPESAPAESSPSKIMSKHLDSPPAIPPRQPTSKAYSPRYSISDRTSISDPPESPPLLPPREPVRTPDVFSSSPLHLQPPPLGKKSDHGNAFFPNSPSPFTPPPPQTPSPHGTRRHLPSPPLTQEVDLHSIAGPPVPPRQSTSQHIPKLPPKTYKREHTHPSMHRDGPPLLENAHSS

MIA PaCa-2 [2] = experiment: Antitumor activity against human MIA PaCa-2 cells xenografted in mouse model assessed as tumor growth inhibition at 50 mg/kg, po relative to control; format: functional; settings: read-out: TGI
MIA PaCa-2 [3] = experiment: Antiproliferative activity against human MIA PaCa-2 cells assessed as reduction in cell growth measured after 48 hrs by MTT assay; format: functional, cell-based; settings: MIA PaCa-2, 48 h
[4] = Intrinsic clearance in mouse liver microsomes; format: ADME, Microsome; settings: read-out: CLH
[5] = Half life in mouse; format: ADME, organism-based; settings: in vivo
[6] = AUC in mouse at 10 mg/kg, ip by LC-MS analysis; format: ADME, organism-based; settings: in vivo
NCI-H460 = experiment: Antiproliferative activity against human NCI-H460 cells harboring KRAS […] mutant assessed as inhibition of cell proliferation incubated for 7 days by CellTiterGlo-3D proliferation assay; format: functional, cell-based; settings: NCI-H460, 168 h
[7] = molecular target: von Hippel-Lindau disease tumor suppressor/Son of sevenless homolog 1 (Homo sapiens, UniProt Q07889+P40337, G12S); experiment: PROTAC activity at VHL/SOS1 in human NCI-H358 cells harboring KRAS G12S mutant assessed as induction of SOS1 degradation incubated for 24 hrs by immunoblotting analysis; format: cell-based
Sequence of von Hippel-Lindau disease tumor suppressor/Son of sevenless homolog 1 (Homo sapiens, UniProt Q07889+P40337, G12S) (P40337 whole entry, looked up, stated change not applied, one chain of several): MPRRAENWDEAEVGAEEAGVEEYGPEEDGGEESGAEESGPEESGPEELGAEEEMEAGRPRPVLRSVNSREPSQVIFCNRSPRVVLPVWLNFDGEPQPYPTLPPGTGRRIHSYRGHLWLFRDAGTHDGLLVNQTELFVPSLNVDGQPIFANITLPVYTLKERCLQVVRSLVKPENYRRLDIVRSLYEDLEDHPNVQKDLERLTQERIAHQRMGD

[8] = Half life in mouse at 10 mg/kg, ip by LC-MS analysis; format: ADME, organism-based; settings: in vivo
[9] = molecular target: von Hippel-Lindau disease tumor suppressor/Son of sevenless homolog 1 (Homo sapiens, UniProt Q07889+P40337, G13D); experiment: PROTAC activity at VHL/SOS1 in human NCI-H358 cells harboring KRAS G13D mutant assessed as induction of SOS1 degradation incubated for 24 hrs by immunoblotting analysis; format: cell-based
Sequence of von Hippel-Lindau disease tumor suppressor/Son of sevenless homolog 1 (Homo sapiens, UniProt Q07889+P40337, G13D) (P40337 whole entry, looked up, stated change not applied, one chain of several): as above

[10] = molecular target: von Hippel-Lindau disease tumor suppressor/Son of sevenless homolog 1 (Homo sapiens, UniProt Q07889+P40337, G12V); experiment: PROTAC activity at VHL/SOS1 in human NCI-H358 cells harboring KRAS G12V mutant assessed as induction of SOS1 degradation incubated for 24 hrs by immunoblotting analysis; format: cell-based
Sequence of von Hippel-Lindau disease tumor suppressor/Son of sevenless homolog 1 (Homo sapiens, UniProt Q07889+P40337, G12V) (P40337 whole entry, looked up, stated change not applied, one chain of several): as above

NCI-H358 [11] = experiment: Antitumor activity against human NCI-H358 cells harboring KRAS G12V mutant xenografted in mouse model assessed as tumor growth inhibition at 10 mg/kg, ip administered once daily for 3 weeks relative to control; format: functional; settings: NCI-H358, 504 h, read-out: TGI
[12] = molecular target: von Hippel-Lindau disease tumor suppressor/Son of sevenless homolog 1 (Homo sapiens, UniProt Q07889+P40337, G12C); experiment: PROTAC activity at VHL/SOS1 in human NCI-H358 cells harboring KRAS G12C mutant assessed as induction of SOS1 degradation incubated for 24 hrs by immunoblotting analysis; format: cell-based
Sequence of von Hippel-Lindau disease tumor suppressor/Son of sevenless homolog 1 (Homo sapiens, UniProt Q07889+P40337, G12C) (P40337 whole entry, looked up, stated change not applied, one chain of several): as above

[13] = molecular target: von Hippel-Lindau disease tumor suppressor/Son of sevenless homolog 1 (Homo sapiens, UniProt Q07889+P40337, G12D); experiment: PROTAC activity at VHL/SOS1 in human NCI-H358 cells harboring KRAS […] mutant assessed as induction of SOS1 degradation incubated for 24 hrs by immunoblotting analysis; format: cell-based
Sequence of von Hippel-Lindau disease tumor suppressor/Son of sevenless homolog 1 (Homo sapiens, UniProt Q07889+P40337, G12D) (P40337 whole entry, looked up, stated change not applied, one chain of several): as above

[14] = molecular target: von Hippel-Lindau disease tumor suppressor/Son of sevenless homolog 1 (Homo sapiens, UniProt Q07889+P40337); experiment: PROTAC activity at VHL/SOS1 in human NCI-H358 cells assessed as induction of SOS1 protein degradation incubated for 24 hrs by Immunoblot analysis; format: cell-based
Sequence of von Hippel-Lindau disease tumor suppressor/Son of sevenless homolog 1 (Homo sapiens, UniProt Q07889+P40337) (P40337 whole entry, one chain of several): as the sequence (P40337 whole entry, looked up, stated change not applied, one chain of several) above

[15] = molecular target: von Hippel-Lindau disease tumor suppressor/Son of sevenless homolog 1 (Homo sapiens, UniProt Q07889+P40337, G12R); experiment: PROTAC activity at VHL/SOS1 in human NCI-H358 cells harboring KRAS G12R mutant assessed as induction of SOS1 degradation incubated for 24 hrs by immunoblotting analysis; format: cell-based
Sequence of von Hippel-Lindau disease tumor suppressor/Son of sevenless homolog 1 (Homo sapiens, UniProt Q07889+P40337, G12R) (P40337 whole entry, looked up, stated change not applied, one chain of several): as above

CAL-62 = experiment: Antiproliferative activity against human CAL-62 cells harboring KRAS G12R mutant assessed as inhibition of cell proliferation incubated for 7 days by CellTiterGlo-3D proliferation assay; format: functional, cell-based; settings: CAL-62, 168 h
NCI-H358 [16] = experiment: Antitumor activity against human NCI-H358 cells harboring KRAS […] mutant xenografted in mouse model assessed as tumor growth inhibition at 10 mg/kg, ip administered once daily for 3 weeks relative to control; format: functional; settings: NCI-H358, 504 h, read-out: TGI
MIA PaCa-2 [17] = experiment: Antitumor activity against human MIA PaCa-2 cells xenografted in CD-1 mouse assessed as tumor inhibition at 20 mg/kg, po BID for 22 days relative to control; format: functional; settings: MIA PaCa-2, 528 h, time 22 day, read-out: TGI
[18] = molecular target: T1, Son of sevenless homolog 1; experiment: Binding affinity to SOS1 (unknown origin) assessed as inhibition constant by HTRF method
MIA PaCa-2 [19] = experiment: Antitumor activity against human MIA PaCa-2 cells xenografted in CD-1 mouse assessed as in tumor growth inhibition at 20 mg/kg, po BID for 22 days relative to control; format: functional; settings: MIA PaCa-2, 528 h, time 22 day, read-out: TGI
[20] = molecular target: T1, Son of sevenless homolog 1; experiment: Inhibition of SOS1 (unknown origin) by HTRF assay
[21] = molecular target: Epidermal growth factor receptor (Homo sapiens, UniProt P00533); experiment: Inhibition of EGFR (unknown origin)
Sequence of Epidermal growth factor receptor (P00533 whole entry): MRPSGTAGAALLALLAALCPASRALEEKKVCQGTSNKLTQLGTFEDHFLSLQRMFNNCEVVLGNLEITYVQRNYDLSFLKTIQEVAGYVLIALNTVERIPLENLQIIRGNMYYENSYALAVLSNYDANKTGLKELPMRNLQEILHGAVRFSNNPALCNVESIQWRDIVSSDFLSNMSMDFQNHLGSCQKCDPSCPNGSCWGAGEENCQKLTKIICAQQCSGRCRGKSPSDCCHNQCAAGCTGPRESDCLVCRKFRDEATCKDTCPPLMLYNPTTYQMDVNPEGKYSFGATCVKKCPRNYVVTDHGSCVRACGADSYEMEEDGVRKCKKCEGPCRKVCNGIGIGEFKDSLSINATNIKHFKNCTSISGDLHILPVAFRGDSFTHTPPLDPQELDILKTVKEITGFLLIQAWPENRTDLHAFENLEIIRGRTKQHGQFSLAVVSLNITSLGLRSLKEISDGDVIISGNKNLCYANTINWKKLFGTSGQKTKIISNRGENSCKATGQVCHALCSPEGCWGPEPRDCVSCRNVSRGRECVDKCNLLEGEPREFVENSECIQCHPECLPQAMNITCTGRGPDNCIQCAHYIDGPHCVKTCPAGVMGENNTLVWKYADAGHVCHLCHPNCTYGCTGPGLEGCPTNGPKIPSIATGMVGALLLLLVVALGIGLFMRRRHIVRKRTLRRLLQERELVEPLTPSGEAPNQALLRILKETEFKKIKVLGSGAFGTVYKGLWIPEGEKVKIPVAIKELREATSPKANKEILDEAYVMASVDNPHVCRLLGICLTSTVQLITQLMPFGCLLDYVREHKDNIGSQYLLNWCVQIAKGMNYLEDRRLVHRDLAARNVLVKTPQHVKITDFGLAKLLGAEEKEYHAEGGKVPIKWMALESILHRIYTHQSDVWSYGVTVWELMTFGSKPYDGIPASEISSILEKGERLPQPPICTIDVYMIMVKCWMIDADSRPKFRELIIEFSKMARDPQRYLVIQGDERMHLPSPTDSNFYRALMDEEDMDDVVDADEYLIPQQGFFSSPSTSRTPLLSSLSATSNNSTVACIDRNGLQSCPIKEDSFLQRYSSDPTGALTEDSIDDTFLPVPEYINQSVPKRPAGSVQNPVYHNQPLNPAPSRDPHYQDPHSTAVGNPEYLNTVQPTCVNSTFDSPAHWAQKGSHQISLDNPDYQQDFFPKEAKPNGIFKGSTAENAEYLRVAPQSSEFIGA

MIA PaCa-2 [22] = experiment: Antiproliferative activity against human MIA PaCa-2 cells harboring KRAS G12C mutant assessed as reduction in cell viability incubated for 72 hrs by MTT assay; format: functional, cell-based; settings: MIA PaCa-2, 72 h
[23] = Half life in CD-1 mouse at 20 mg/kg, po measured after 24 hrs by LC-MS/MS analysis; format: ADME, organism-based; settings: in vivo
[24] = Oral bioavailability in CD-1 mouse at 20 mg/kg measured upto 24 hrs by LC/MS/MS analysis; format: ADME, organism-based; settings: in vivo
[25] = Volume of distribution at steady state in CD-1 mouse at 5 mg/kg, ip measured after 24 hrs by LC-MS/MS analysis; format: ADME, organism-based; settings: in vivo
MIA PaCa-2 [26] = experiment: Antitumor activity against human MIA PaCa-2 cells xenografted in CD-1 mouse assessed as tumor growth inhibition at 20 mg/kg BID for 22 days relative to control; format: functional; settings: MIA PaCa-2, 528 h, time 22 day, read-out: TGI
[27] = Clearance in CD-1 mouse at 5 mg/kg, ip measured after 24 hrs by LC-MS/MS analysis; format: ADME, organism-based; settings: in vivo

Compound `COc1cc2nc(C)nc(N[C@H](C)c3cc(N)cc(C(F)(F)F)c3)c2cc1O[C@H]1CCOC1` has an IC50 (K562) of 37 nM.

`Cc1nc(N[C@H](C)c2cccc(C(F)F)c2F)c2cc3c(cc2n1)OC[C@H]1CN(C(=O)C2(C#N)CC2)CCN31` showed an IC50 [1] of 5 nM, an inhibition in vivo at 50 mg/kg (MIA PaCa-2 [2]) of 71% and an IC50 (MIA PaCa-2 [3]) of 178 nM. The CLint scaled [4] was 37.2 mL/min/kg and the half-life [5] was 1.12 h.

`COc1cc2nc(C)nc(N[C@H](C)c3cc(N)cc(C(F)(F)F)c3)c2cc1C1CCN(C(=O)CCCCCC(=O)N[C@H](C(=O)N2C[C@H](O)C[C@H]2C(=O)N[C@@H](C)c2ccc(-c3scnc3C)cc2)C(C)(C)C)CC1` showed an AUC [6] of 14100 ng·h/mL, an IC50 (NCI-H460) of 6.97 nM and a DC50 [7] of 8.41 nM. The half-life [8] was 9.69 h, the DC50 [9] was 8.41 nM and the DC50 [10] was 8.41 nM. For the same compound, the inhibition in vivo at 10 mg/kg (NCI-H358 [11]) was > 65%, the DC50 [12] was 8.41 nM and the DC50 [13] was 8.41 nM. For the same compound, the DC50 [14] was 15.7 nM, the DC50 [15] was 8.41 nM and the IC50 (CAL-62) was 6.97 nM. The inhibition in vivo at 10 mg/kg (NCI-H358 [16]) was > 65%.

In the case of `COC(=O)N1CCN2c3cc4c(N[C@H](C)c5cccc(C(F)F)c5F)nnc(C)c4cc3OC[C@H]2C1`, the IC50 [1] is reported as 1.6 nM, the inhibition in vivo at 20 mg/kg (MIA PaCa-2 [17]) is reported as 104% and the Ki [18] is reported as 3.9 nM. The inhibition in vivo at 20 mg/kg (MIA PaCa-2 [19]) was 87%, the IC50 [20] was 1.1 nM and the IC50 [21] was > 10000 nM. For the same compound, the IC50 (MIA PaCa-2 [22]) was 43 nM, the half-life [23] was 6.4 h and the bioavailability [24] was 65.8%. It also gave a Vdss [25] of 0.33 L/kg, an inhibition in vivo at 20 mg/kg (MIA PaCa-2 [26]) of 42% and a CL/F [27] of 1.7 mL/min/kg.
